Data reported in patent US20240116985A1, “STAPLED PEPTIDES AND METHODS THEREOF” (priority 2020, published 2024).
Read-outs that look alike come from different tables or passages of the source.

Legend:
[1] = molecular target: T1, full-length beta-Catenin (Uniprot ID P35222) (Homo sapiens, UniProt P35222); assay: Fluorescence polarization IC50 (beta-catenin / 5FAM-TCF4 10-53 competition); assay type: binding
T1 construct: 10 nM full-length beta-Catenin (Uniprot ID P35222)
T1 sequence (P35222 1-781): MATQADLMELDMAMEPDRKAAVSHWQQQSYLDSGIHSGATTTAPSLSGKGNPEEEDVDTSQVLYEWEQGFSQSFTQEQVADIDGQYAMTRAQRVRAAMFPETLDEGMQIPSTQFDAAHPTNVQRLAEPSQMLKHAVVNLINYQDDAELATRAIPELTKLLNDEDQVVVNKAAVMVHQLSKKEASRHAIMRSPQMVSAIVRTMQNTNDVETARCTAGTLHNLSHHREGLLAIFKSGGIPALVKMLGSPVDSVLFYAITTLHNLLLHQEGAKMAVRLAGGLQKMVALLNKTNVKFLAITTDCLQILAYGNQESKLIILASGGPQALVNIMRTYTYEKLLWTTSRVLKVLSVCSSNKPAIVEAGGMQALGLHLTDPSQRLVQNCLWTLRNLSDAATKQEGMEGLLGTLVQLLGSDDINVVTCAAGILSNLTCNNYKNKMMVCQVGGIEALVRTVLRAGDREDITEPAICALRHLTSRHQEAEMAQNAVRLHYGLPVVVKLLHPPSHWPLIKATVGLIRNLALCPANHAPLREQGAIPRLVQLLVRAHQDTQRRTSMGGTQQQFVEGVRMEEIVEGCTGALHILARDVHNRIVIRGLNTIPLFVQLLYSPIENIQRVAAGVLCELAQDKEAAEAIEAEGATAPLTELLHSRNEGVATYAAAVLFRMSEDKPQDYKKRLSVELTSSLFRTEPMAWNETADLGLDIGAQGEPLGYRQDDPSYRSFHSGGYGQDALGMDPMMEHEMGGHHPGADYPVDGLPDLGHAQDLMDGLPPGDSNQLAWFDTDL

[2] = molecular target: T2, beta-catenin/TCF4 engagement (Homo sapiens, UniProt P35222); assay: Nano-BRET target engagement assay (B-cat-Halo & TCF4-Luc in HEK293 cells); assay type: cell-based
T2 construct: expressed in transfected cells; host or cells: HEK293
T2 sequence (P35222 1-781): T1 sequence (P35222 1-781)

[3] = CHI Log D procedure; assay type: physicochemical; details: pH 7.4, CHI Log D
[4] = absolute IC50, read-out: NanoBRET Abs IC50

Row | Compound | IC50 ([1]; read-out: beta-Catenin FP IC50) [µM] | IC50 ([2]; read-out: NanoBRET Abs IC50) [µM] | IC50 ([2]; read-out: NanoBRET IC50) [µM] | chromatographic logD [3] | IC50 [2, 4] [µM] | IC50 ([1]; fluorescence polarization, beta-catenin, read-out: FP EC50) [µM]
1 | CC(=O)N1CCC[C@]12CC=CCCCC1(CCCC=CCCCCCC[C@@](C)(C(=O)N[C@@H](Cc3ccccc3Cl)C(=O)N[C@@H](Cc3csc4ccccc34)C(=O)N[C@@H](CCC(N)=O)C(N)=O)NC(=O)[C@H](CC(N)=O)NC(=O)[C@H](Cc3ccccc3)NC(=O)[C@H](C)NC(=O)[C@H](C)NC(=O)[C@H](CN(CC(=O)O)CC(F)(F)F)NC(=O)[C@H](CC(=O)O)NC1=O)NC(=O)[C@H](CC(C)(C)C)NC(=O)[C@H](CC(=O)O)NC2=O (stereo partly drawn) [I-929, Ac-PL3-Asp-Npg-B5-Asp-TfeGA-Ala-Ala-Phe-Asn-S8-2C1F-BztA-Gln-NH2] | 0.023 | 10.3 | 7 | 2.74 |  | 
2 | CC(=O)N1CCC[C@]12CC=CCCCC1(CCCC=CCCCCCC[C@@](C)(C(=O)N[C@@H](Cc3ccccc3Cl)C(=O)N[C@@H](Cc3csc4ccccc34)C(=O)N[C@@H](CCC(N)=O)C(N)=O)NC(=O)[C@H]([C@@H](C)O)NC(=O)[C@H](Cc3ccccc3)NC(=O)[C@H](C)NC(=O)[C@H](C)NC(=O)[C@H](CN(CC(=O)O)CC(F)(F)F)NC(=O)[C@H](CC(=O)O)NC1=O)NC(=O)[C@H](CC(C)(C)C)NC(=O)[C@H](CC(=O)O)NC2=O (stereo partly drawn) [I-930, Ac-PL3-Asp-Npg-B5-Asp-TfeGA-Ala-Ala-Phe-Thr-S8-2C1F-BztA-Gln-NH2] | 0.037 | 13.5 | 5.6 | 2.96 |  | 
3 | CC(=O)N1CCC[C@]12CC=CCCCC1(CCCC=CCCCCCC[C@@](C)(C(=O)N[C@@H](Cc3ccccc3Br)C(=O)N[C@@H](Cc3csc4ccccc34)C(=O)N[C@@H](CCC(N)=O)C(N)=O)NC(=O)[C@H](CC(N)=O)NC(=O)[C@H](Cc3ccccc3)NC(=O)[C@H](C)NC(=O)[C@H](C)NC(=O)[C@H](CN(CC(=O)O)CC(F)(F)F)NC(=O)[C@H](CC(=O)O)NC1=O)NC(=O)[C@H](CC(C)(C)C)NC(=O)[C@H](CC(=O)O)NC2=O (stereo partly drawn) [I-932, Ac-PL3-Asp-Npg-B5-Asp-TfeGA-Ala-Ala-Phe-Asn-S8-2BrF-BztA-Gln-NH2] | 0.035 |  |  | 2.77 | 11.4 | 
4 | CC(=O)N1CCC[C@]12CC=CCCCC1(CCCC=CCCCCCC[C@@](C)(C(=O)N[C@@H](Cc3cccc(Cl)c3)C(=O)N[C@@H](Cc3csc4ccccc34)C(=O)N[C@@H](CCC(N)=O)C(N)=O)NC(=O)[C@H](CC(N)=O)NC(=O)[C@H](Cc3ccccc3)NC(=O)[C@H](C)NC(=O)[C@H](C)NC(=O)[C@H](CN(CC(=O)O)CC(F)(F)F)NC(=O)[C@H](CC(=O)O)NC1=O)NC(=O)[C@H](CC(C)(C)C)NC(=O)[C@H](CC(=O)O)NC2=O (stereo partly drawn) [I-933, Ac-PL3-Asp-Npg-B5-Asp-TfeGA-Ala-Ala-Phe-Asn-S8-3C1F-BztA-Gln-NH2] | 0.168 | 22.2 | > 20 | 3.03 |  | 
5 | CC(=O)N1CCC[C@]12CC=CCCCC1(CCCC=CCCCOC(=O)N3CC[C@@](C(=O)N[C@@H](Cc4ccccc4Cl)C(=O)N[C@@H](Cc4csc5ccccc45)C(=O)N[C@@H](CCC(N)=O)C(N)=O)(C3)NC(=O)[C@H](CC(N)=O)NC(=O)[C@H](Cc3ccccc3)NC(=O)[C@H](C)NC(=O)[C@H](CO)NC(=O)[C@H](CN(CC(=O)O)CC(F)(F)F)NC(=O)[C@H](CC(=O)O)NC1=O)NC(=O)[C@H](CC(C)(C)C)NC(=O)[C@H](CC(=O)O)NC2=O (stereo partly drawn) [I-1009, Ac-PL3-Asp-Npg-B5-Asp-TfeGA-Ser-Ala-Phe-Asn-PyrS2-2C1F-BztA-Gln-NH2] | 0.011 |  |  | 2.04 | 33.3 | 
6 | CC(=O)N1CCC[C@]12CC=CCCCC1(CCCC=CCCCOC(=O)N3CC[C@@](C(=O)N[C@@H](Cc4ccccc4Cl)C(=O)N[C@@H](Cc4csc5ccccc45)C(=O)N[C@@H](C(N)=O)[C@H](C)O)(C3)NC(=O)[C@H](CO)NC(=O)[C@H](Cc3ccccc3)NC(=O)[C@H](C)NC(=O)[C@H](C)NC(=O)[C@H](CCC(=O)O)NC(=O)[C@H](CC(=O)O)NC1=O)NC(=O)[C@H](CC(C)(C)C)NC(=O)[C@H](CC(=O)O)NC2=O (stereo partly drawn) [I-1036, Ac-PL3-Asp-Npg-B5-Asp-Glu-Ala-Ala-Phe-Ser-PyrS2-2C1F-BztA-dThr-NH2] | 0.029 | 16.6 |  | 2.46 |  | 
7 | CC(=O)N1CCC[C@]12CC=CCCCC1(CCCC=CCCCOC(=O)N3CC[C@@](C(=O)N[C@@H](Cc4ccccc4Cl)C(=O)N[C@@H](Cc4csc5ccccc45)C(=O)N[C@@H](C(N)=O)[C@H](C)O)(C3)NC(=O)[C@H]([C@@H](C)O)NC(=O)[C@H](Cc3ccccc3)NC(=O)[C@H](C)NC(=O)[C@H](C)NC(=O)[C@H](CCC(=O)O)NC(=O)[C@H](CC(=O)O)NC1=O)NC(=O)[C@H](CC(C)(C)C)NC(=O)[C@H](CC(=O)O)NC2=O (stereo partly drawn) [I-1037, Ac-PL3-Asp-Npg-B5-Asp-Glu-Ala-Ala-Phe-Thr-PyrS2-2C1F-BztA-dThr-NH2] | 0.03 | 4.4 |  | 2.52 |  | 
8 | CC(=O)N1CCC[C@]12CC=CCCCC1(CCCC=CCCCOC(=O)N3CC[C@@](C(=O)N[C@@H](Cc4ccccc4Cl)C(=O)N[C@@H](Cc4csc5ccccc45)C(=O)N[C@@H](CCC(N)=O)C(N)=O)(C3)NC(=O)[C@H](CC(C)C)NC(=O)[C@H](Cc3ccccc3)NC(=O)[C@H](C)NC(=O)[C@H](C)NC(=O)[C@H](CC(=O)O)NC(=O)[C@H](CC(=O)O)NC1=O)NC(=O)[C@H](CC(C)(C)C)NC(=O)[C@H](CC(=O)O)NC2=O (stereo partly drawn) [I-1062, Ac-PL3-Asp-Npg-B5-Asp-Asp-Ala-Ala-Phe-Leu-PyrS2-2C1F-BztA-Gln-NH2] | 0.011 | 4.7 |  | 1.9 |  | 0.393

Stronger by IC50 ([1]; read-out: beta-Catenin FP IC50), values ahead:

Row | IC50 ([1]; read-out: beta-Catenin FP IC50) [µM] | IC50 ([2]; read-out: NanoBRET Abs IC50) [µM] | IC50 ([2]; read-out: NanoBRET IC50) [µM] | chromatographic logD [3] | IC50 [2, 4] [µM] | IC50 ([1]; fluorescence polarization, beta-catenin, read-out: FP EC50) [µM] | Compound
9 | 0.008 | 33.1 |  | 1.93 |  |  | C#CCOCCC(=O)NCCCC[C@H](NC(=O)[C@H](CCC(N)=O)NC(=O)[C@H](Cc1csc2ccccc12)NC(=O)[C@H](Cc1ccsc1)NC(=O)[C@]12CCN(C1)C(=O)OCCCC=CCCCC1(CCCC=CC[C@]3(CCCN3C(C)=O)C(=O)N[C@@H](CC(=O)O)C(=O)N[C@@H](CC(C)(C)C)C(=O)N1)C(=O)N[C@@H](CC(=O)O)C(=O)N[C@@H](CC(=O)O)C(=O)N[C@@H](C)C(=O)N[C@@H](C)C(=O)N[C@@H](Cc1ccccc1)C(=O)N[C@@H](CC(N)=O)C(=O)N2)C(N)=O (stereo partly drawn) [I-935, Ac-PL3-Asp-Npg-B5-Asp-Asp-Ala-Ala-Phe-Asn-PyrS2-3Thi-BztA-Gln-[PropynPEG1]Lys-NH2]
10 | 0.007 | 22.2 |  | 1.94 |  |  | C#CCOCCOCCC(=O)NCCCC[C@H](NC(=O)[C@H](CCC(N)=O)NC(=O)[C@H](Cc1csc2ccccc12)NC(=O)[C@H](Cc1ccsc1)NC(=O)[C@]12CCN(C1)C(=O)OCCCC=CCCCC1(CCCC=CC[C@]3(CCCN3C(C)=O)C(=O)N[C@@H](CC(=O)O)C(=O)N[C@@H](CC(C)(C)C)C(=O)N1)C(=O)N[C@@H](CC(=O)O)C(=O)N[C@@H](CC(=O)O)C(=O)N[C@@H](C)C(=O)N[C@@H](C)C(=O)N[C@@H](Cc1ccccc1)C(=O)N[C@@H](CC(N)=O)C(=O)N2)C(N)=O (stereo partly drawn) [I-936, Ac-PL3-Asp-Npg-B5-Asp-Asp-Ala-Ala-Phe-Asn-PyrS2-3Thi-BztA-Gln-[PropynPEG2]Lys-NH2]
11 | 0.009 | 28.8 |  | 1.94 |  |  | C#CCOCCOCCOCCC(=O)NCCCC[C@H](NC(=O)[C@H](CCC(N)=O)NC(=O)[C@H](Cc1csc2ccccc12)NC(=O)[C@H](Cc1ccsc1)NC(=O)[C@]12CCN(C1)C(=O)OCCCC=CCCCC1(CCCC=CC[C@]3(CCCN3C(C)=O)C(=O)N[C@@H](CC(=O)O)C(=O)N[C@@H](CC(C)(C)C)C(=O)N1)C(=O)N[C@@H](CC(=O)O)C(=O)N[C@@H](CC(=O)O)C(=O)N[C@@H](C)C(=O)N[C@@H](C)C(=O)N[C@@H](Cc1ccccc1)C(=O)N[C@@H](CC(N)=O)C(=O)N2)C(N)=O (stereo partly drawn) [I-937, Ac-PL3-Asp-Npg-B5-Asp-Asp-Ala-Ala-Phe-Asn-PyrS2-3Thi-BztA-Gln-[PropynPEG3]Lys-NH2]
12 | 0.008 |  |  | 2.36 | 13.3 |  | CC[C@H](C)[C@@H]1NC(=O)[C@H](CN(CC(=O)O)CC(F)(F)F)NC(=O)[C@H](CC(=O)O)NC(=O)C2(CCCC=CCCCOC(=O)N3CC[C@@](C(=O)N[C@@H](Cc4ccccc4Cl)C(=O)N[C@@H](Cc4csc5ccccc45)C(=O)N[C@@H](CCC(N)=O)C(N)=O)(C3)NC(=O)[C@H](CC(N)=O)NC(=O)[C@H](Cc3ccccc3)NC(=O)[C@H](C)NC1=O)CCCC=CC[C@]1(CCCN1C(C)=O)C(=O)N[C@@H](CC(=O)O)C(=O)N[C@@H](CC(C)(C)C)C(=O)N2 (stereo partly drawn) [I-1010, Ac-PL3-Asp-Npg-B5-Asp-TfeGA-Ile-Ala-Phe-Asn-PyrS2-2C1F-BztA-Gln-NH2]
